The species named for assay [1] is Cavia porcellus. The experiment in a line: Selectivity ratio of ED25 for beta-1 adrenergic receptor in guinea pig right atria to ED50 for beta-2 adrenergic receptor in guinea pig tracheal chain.
Assay [2] deals with Beta-1 adrenergic receptor (Cavia porcellus) (UniProt B0FL73). In words: Intrinsic activity at beta-1 adrenergic receptor in guinea pig right atria assessed as increase in contraction rate of spontaneously beating right atria relative to isoproterenol.
Sequence of Beta-1 adrenergic receptor (Cavia porcellus) (B0FL73 1-467): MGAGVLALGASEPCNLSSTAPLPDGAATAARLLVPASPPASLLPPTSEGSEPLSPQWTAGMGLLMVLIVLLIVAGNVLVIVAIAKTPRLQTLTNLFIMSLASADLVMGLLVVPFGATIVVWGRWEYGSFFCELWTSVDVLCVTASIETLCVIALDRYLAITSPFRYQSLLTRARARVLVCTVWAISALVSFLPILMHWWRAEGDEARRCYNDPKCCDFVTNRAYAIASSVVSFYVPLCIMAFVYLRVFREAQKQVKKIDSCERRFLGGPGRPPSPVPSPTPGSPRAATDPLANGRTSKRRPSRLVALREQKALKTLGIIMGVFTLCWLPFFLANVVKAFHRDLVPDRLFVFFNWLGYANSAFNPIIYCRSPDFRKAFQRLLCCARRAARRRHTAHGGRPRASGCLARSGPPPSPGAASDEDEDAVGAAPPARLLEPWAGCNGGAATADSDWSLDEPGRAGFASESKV
Assay [3] addresses Beta-2 adrenergic receptor (Cavia porcellus) (UniProt Q8K4Z4). The settings on record: Trachea.
Description: Agonist activity at beta-2 adrenergic receptor in guinea pig tracheal chain assessed as relaxation of spontaneously contracted tracheal smooth muscle
For assay [4], the target named is Beta-1 adrenergic receptor (Cavia porcellus) (UniProt B0FL73).
The target is the same in assay [5]. The experiment in a line: Agonist activity at beta-1 adrenergic receptor in guinea pig right atria assessed as increase in contraction rate of spontaneously beating right atria at 1.1 X 10^-5 M relative to control.
Assay [6] shares this target. The experiment in a line: Agonist activity at beta-1 adrenergic receptor in guinea pig right atria assessed as increase in contraction rate of spontaneously beating right atria at 6.3 X 10^-5 M relative to control.

SMILES strings stand for the structures.

Sequence of Beta-2 adrenergic receptor (Cavia porcellus) (Q8K4Z4 whole entry, looked up): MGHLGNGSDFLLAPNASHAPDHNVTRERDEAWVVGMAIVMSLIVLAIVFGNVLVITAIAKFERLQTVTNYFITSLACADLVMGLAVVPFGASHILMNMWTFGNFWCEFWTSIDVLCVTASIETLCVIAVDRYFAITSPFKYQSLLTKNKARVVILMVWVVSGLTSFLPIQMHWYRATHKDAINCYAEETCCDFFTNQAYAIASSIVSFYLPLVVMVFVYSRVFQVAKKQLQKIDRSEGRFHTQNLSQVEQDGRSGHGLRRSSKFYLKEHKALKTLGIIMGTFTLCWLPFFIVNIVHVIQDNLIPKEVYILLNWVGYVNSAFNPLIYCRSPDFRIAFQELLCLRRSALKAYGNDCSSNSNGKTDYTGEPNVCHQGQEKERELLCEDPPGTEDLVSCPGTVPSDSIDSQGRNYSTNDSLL

Turning to `CC(C)(C)NCC(O)c1ccc(O)c(N)c1` (stereo not drawn), the Selectivity ratio in assay [1] was 5.2.
Regarding `CC(C)(C)NCC(CO)c1ccc(O)c(NC(N)=O)c1` (stereo not drawn), the Intrinsic activity in assay [2] came to 0.3. The compound further displayed an ED50 in assay [3] of 5.2 ×10⁻⁷ M. The Selectivity ratio in assay [1] worked out at 18. In assay [4], this compound gave an ED25 of 9.3 µM.
As for `CC(C)NCC(O)c1ccc(O)c(O)c1` (stereo not drawn), the ED50 in assay [3] turned out to be 0.0071 µM.
`CC(C)(C)NCC(CO)c1ccc(O)c(N)c1` (stereo not drawn): in assay [2], the Intrinsic activity was 0.7. For the same compound, the ED50 in assay [3] was found to be 9.6 ×10⁻⁷ M. Also, the Selectivity ratio in assay [1] was found to be 1.4. Besides, the ED25 in assay [4] was found to be 1.3 µM.
With `CC(C)NCC(O)c1ccc(O)c(NS(C)(=O)=O)c1` (stereo not drawn), in assay [2], the Intrinsic activity came to 0.7. The ED50 in assay [3] amounted to 2.6 ×10⁻⁸ M. Further, the Selectivity ratio in assay [1] worked out at 3. In assay [4], this compound displayed an ED25 of 7.6 ×10⁻⁸ M.
`CC(C)(C)NCC(CO)c1ccc(O)c(NS(C)(=O)=O)c1` (stereo not drawn) showed an ED50 in assay [3] of 6 ×10⁻⁷ M. Further, in assay [5], the Activity was 18%.
In the case of `CC(C)NCC(C)(O)c1ccc(O)c(O)c1` (stereo not drawn), the ED50 in assay [3] worked out at 3.4 µM. For the same compound, the Activity in assay [6] was 18%.
In the case of `CC(C)(C)NCC(O)c1ccc(O)c(NC(N)=O)c1` (stereo not drawn), in assay [2], the Intrinsic activity came to 0.5. Also, in assay [3], the ED50 amounted to 1.9 ×10⁻⁸ M. For the same compound, the Selectivity ratio in assay [1] was found to be 34. The ED25 in assay [4] was 6.4 ×10⁻⁷ M.
With `CC(C)(C)NCC(CO)c1ccc(O)cc1` (stereo not drawn), the Intrinsic activity in assay [2] was determined as 0.3. The ED50 in assay [3] was found to be 4.1 µM. The Selectivity ratio in assay [1] was 24. This compound showed an ED25 in assay [4] of 9.8 ×10⁻⁵ M.
For the compound `CC(C)(C)NCC(O)c1ccc(O)c(O)c1` (stereo not drawn), in assay [2], the Intrinsic activity was found to be 1. For the same compound, the ED50 in assay [3] was determined as 0.0013 µM. Also, the Selectivity ratio in assay [1] stood at 5.5. For the same compound, the ED25 in assay [4] came out at 0.0071 µM.
The like results for `CC(C)(C)NCC(O)c1ccc(O)c(CO)c1` (stereo not drawn) were, in that order, 0.7, 1.1 ×10⁻⁸ M, 28 and 3.1 ×10⁻⁷ M.
The like results for `CC(C)(C)NCC(CO)c1ccc(O)c(CO)c1` (stereo not drawn) were, in that order, 0.25, 4.6 µM, 10 and 4.7 ×10⁻⁵ M.
The like results for `CC(C)(C)NCC(CO)c1ccc(O)c(O)c1` (stereo not drawn) were, in that order, 1, 3.3 ×10⁻⁸ M, 2.9 and 9.6 ×10⁻⁸ M.
In assay [3], `COC(CNC(C)C)c1ccc(O)c(O)c1` (stereo not drawn) came in with an ED50 of 1.6 µM. The same compound showed an ED25 in assay [4] of 3 ×10⁻⁷ M.
On to `CC(C)NCC(O)c1ccc(O)cc1` (stereo not drawn), for which, in assay [2], the Intrinsic activity turned out to be 0.3. The ED50 in assay [3] amounted to 1.1 ×10⁻⁷ M. The Selectivity ratio in assay [1] stood at 0.7. For the same compound, the ED25 in assay [4] stood at 7.7 ×10⁻⁸ M.

(Values after ChEMBL document CHEMBL3272119, “Adrenergic agents. 8.1 Synthesis and beta-adrenergic agonist activity of some 3-tert-butylamino-2-(substituted phenyl)-1-propanols” (J Med Chem, 1977).)
